Residue numbers refer to the chain shown, from its start. “Also recorded” adds a separate entry of the source. Like-named read-outs stand apart in the source and are kept apart here.
What was measured:
[1] = molecular target: 5-HT3 receptors; set-up: method as in Ashoor et al., 2013; details: ref Ashoor et al., 2013; cited from earlier work
[2] = molecular target: T1, 5-HT3 receptor (Homo sapiens, UniProt P46098); experiment: Dual application with bilobalide or diltiazem (allotopic vs syntopic inhibition), oocytes; format: cell-based; set-up: expressed in transfected cells; host or cells: Xenopus oocytes injected with cRNA transcribed from pGEMHE; details: 100 µM 5-HT
T1 sequence (P46098 24-478): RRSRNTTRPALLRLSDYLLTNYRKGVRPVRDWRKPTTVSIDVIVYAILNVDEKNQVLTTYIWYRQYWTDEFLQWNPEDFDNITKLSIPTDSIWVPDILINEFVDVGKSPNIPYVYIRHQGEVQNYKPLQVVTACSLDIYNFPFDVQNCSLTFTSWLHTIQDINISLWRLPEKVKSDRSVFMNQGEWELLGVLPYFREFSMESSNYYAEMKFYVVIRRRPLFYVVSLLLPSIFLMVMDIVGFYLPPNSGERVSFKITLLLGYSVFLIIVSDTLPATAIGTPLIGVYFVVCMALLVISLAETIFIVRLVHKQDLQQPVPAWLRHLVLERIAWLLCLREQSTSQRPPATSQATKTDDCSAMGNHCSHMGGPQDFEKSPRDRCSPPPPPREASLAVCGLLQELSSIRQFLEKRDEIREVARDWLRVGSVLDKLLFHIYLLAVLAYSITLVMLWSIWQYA
Experimental: Dual application studies were performed as previously described ([Jarvis and Thompson, 2013]). This is a simple method to determine whether two channel blockers share the same binding site (syntopic inhibition) or bind to separate locations (allotopic inhibition). […] Concentrations of the test compounds, BB and DTZ, were selected such that they caused approximately 62% inhibition when used alone. From the results of these experiments, predicted levels of inhibition were derived for both allotopic and syntopic modes of action. These predictions were compared with data obtained experimentally using the same concentrations of the inhibitors acting together. For each oocyte, the change in the amplitude of the 5-HT response over time was monitored and taken into account. Inhibition by drugs was quantified in relation to interpolated control responses for each time point.
The dual application measurements were compared statistically with allotopic and syntopic predictions using a two-way analysis of variance in which the oocyte was included as a random effect (SPSS Statistics 20; IBM, Armonk, NY). Post-hoc testing was with Dunnett’s method, comparing the measured data to each of the predictions.

[3] = molecular target: T2, 5-HT3AT6'S receptors (Homo sapiens, UniProt P46098, T279S); experiment: Two-electrode voltage clamp in oocytes expressing the 5-HT3AT6'S receptor mutant; format: cell-based; details: for ΔpEC50 (ΔpIC50 for inhibitors, T6'S vs wild-type): 2 µM 5-HT; for IC50: read-out: pEC50 (pIC50 for inhibitors) at T6'S mutant (converted)
T2 construct: expressed in transfected cells; host or cells: Xenopus oocytes
T2 sequence (P46098 24-478 T279S): T1 sequence (P46098 24-478) with T256S
Experimental: Microelectrodes were fabricated from borosilicate glass (GC120TF-10; Harvard Apparatus, Edenbridge, Kent, UK) using a two-stage horizontal pull (P-97; Sutter Instrument Company, Novato, CA) and filled with 3 M KCl. Pipette resistances ranged from 0.8 to 2.0 MΩ. Oocytes were placed in a perfusion chamber made from 2-mm-wide × 30-mm-long silicon tubing that was cut in half lengthways (total volume ∼0.1 ml), and were perfused with ND96 at a rate of 12 ml min^−1. Drug application was via a simple gravity-fed system calibrated to run at the same rate. […] A 3-minute wash was used between compound applications. Oils were dissolved in buffer containing 1% DMSO, freshly prepared each day, and constantly stirred during the experiments.
The effects of the compounds on 5-HT3AT6'S receptors were also evaluated. […] Parameters were incorporated into the model that defined changes in pEC50, pIC50, Max0, and pA2 values for 5-HT3AT6'S receptors. These parameters were statistically evaluated as described earlier.
Parameters were included in the model that allowed differences in agonist and inhibitory effects to be quantified and evaluated.

[4] = molecular target: T3, human 5-HT3 receptors (5-HT3A) (Homo sapiens, UniProt P46098); experiment: Two-electrode voltage clamp of 5-HT-evoked currents in Xenopus oocytes expressing 5-HT3 receptors, nonlinear mixed-effects modeling
T3 sequence (P46098 24-478): T1 sequence (P46098 24-478)
Experimental: 5-HT3A subunit cDNA was cloned into pGEMHE for oocyte expression. cRNA was transcribed in vitro from a linearized plasmid cDNA template using the mMessage mMachine Ultra T7 Transcription kit (Ambion, Austin, TX). Stage V and VI oocytes were injected with 50 nl of 100–500 ng µl^−1 cRNA (5–25 ng injected), and currents were recorded 1–4 days postinjection.
Specifically, NONMEM allows the modeling of the relationship between drug and response, and importantly, the random between-oocyte variance, which is considerable. NONMEM enabled a single unified model to be created that included all electrophysiological agonist and antagonist data. […] The ability to allow for between-oocyte variance enabled raw peak currents to be analyzed, rather than normalized values. Normalization can obscure relationships between parameters, resulting in inaccurate and imprecise estimates of drug effects. Differences in peak currents and agonist potency between different oocytes were modeled with population variances (ω^2) associated with model parameters.
A structural model defined the relationship between the independent variables (i.e., agonist and antagonist concentrations) and the peak current (dependent variable).
The effect of time on the agonist response was modeled linearly as:(2) [drawing 2] where Max0 = as in eq. 1; MaxT = PRED when [A] = ∞ at time T; T = time (hours) from start of individual experiment; and nT = change in response per hour expressed as a proportion of the response at T = 0 (nT = 0 represents no change; nT = −0.1 represents a reduction of 10%, and nT = 0.1 represents an increase of 10% per hour).
The effect of the compounds on MaxT was modeled as follows:(3) [drawing 3] where MaxT = PRED when [A] = ∞ in the absence of drug D at time T (eq. 2); Max(D) = PRED when [A] = ∞ in the presence of drug D at time T; [D] = concentration of inhibitor drug; pIC50 = −log10[D] in the presence of which Max(D) = MaxT/2; and nH(D) = inhibitor Hill coefficient. (This model assumes that, when [D] = ∞, PRED = 0.)

[5] = molecular target: T1, 5-HT3 receptor; experiment: Flow cytometry competition binding with 10 nM fluorescent granisetron (G-FL) in HEK293 cells; set-up: expressed in transfected cells; host or cells: HEK293 cells, transient transfection with pcDNA3.1 construct; details: concentrations up to 1 mM, n = 3
Experimental: 5-HT3A subunit cDNA was cloned into pcDNA3.1 for expression in HEK293 cells (ThermoFisher Scientific, Waltham, MA). Cells were transiently transfected with this cDNA using polyethyleneimine (25 kDa, linear, powder; Polysciences Inc., Eppelheim, Germany). Thirty microliters of polyethyleneimine (1 mg ml^−1), 5 μg of cDNA, and 1 ml of DMEM were incubated for 10 minutes at room temperature, added dropwise to a 90-mm plate of 70–80% confluent HEK293 cells, and incubated for 2–3 days before use.
HEK293 cells expressing the 5-HT3 receptor were grown in monolayers and harvested from a 90-mm culture dish using 10 ml of Trypsin-EDTA (Sigma-Aldrich) for 10 minutes at 37°C. Digestion was terminated by the addition of 25 ml DMEM + 10% fetal bovine serum, and cells were pelleted at low speed for 2 minutes. […] Competition binding was measured by incubating HEK293 cells with different concentrations of nonlabeled ligands and 10 nM fluorescent granisetron (G-FL). […] The geometric mean was measured at each concentration of test compound and fitted to eq. 1 (see the following section) using a least-squares method (GraphPad Prism v4; GraphPad Software, La Jolla, CA).

[6] = test system: 5-HT-evoked contractions of guinea pig ileum; experiment: 5-HT-evoked contraction of isolated guinea pig ileum
Experimental: Guinea pig ileum was obtained from adult male guinea pigs (200–300 g). The ileum was cut into 1-cm lengths and mounted longitudinally to a force transducer with a resting tension of 0.5 g in a 10-ml water-jacketed organ bath containing Krebs’ buffer (118 mM NaCl, 4.7 mM KCl, 1.2 mM MgSO4, 1.25 mM CaCl2, 11 mM glucose, 10 mM HEPES, pH 7.2) continuously aerated with 95% O2/5% CO2 and kept at 37°C. The ileum segments were allowed to equilibrate for 10 minutes before the experiments were started, and contractile responses were recorded using LabChart 6 (ADInstruments Ltd., Oxford, UK). […] Following drug applications, the organ bath was flushed twice with fresh Krebs’ solution, and the ileum was allowed to recover for 10 minutes prior to the next application. […] Experiments involving animals were approved by the University of Cambridge Animal Welfare and Ethical Review Body (reference: PHARM 004/15).

[7] = test system: 5-HT-induced contractions in rat trachea; experiment: 5-HT-induced contraction of isolated rat trachea; details: granisetron 10 µM
Experimental: The trachea was removed from male Wistar albino rats (250–350 g), cut into 2-cm lengths, and mounted on a force transducer with a resting tension of 1.0 g in a 10-ml water-jacketed organ bath containing modified Tyrode’s solution (136 mM NaCl, 5 mM KCl, 0.98 mM MgCl2, 0.36 mM NaH2PO4, 2 mM CaCl2, 11.9 mM NaHCO3, 5.5 mM glucose, pH 7.4) continuously aerated with 95% O2/5% CO2 and kept at 37°C. Contractile responses were recorded using a force transducer (model FT03; Grass Technologies, Quincy, MA) connected to a PC-based data acquisition system (Dataq, PM-1000; DATAQ Instruments Inc., Akron, OH). The experiments were conducted after an equilibration period of 60 minutes and three successive similar contractile responses. Experiments were approved by the local animal ethics committee (protocol number 00084/2014.2).

[8] = IC50 (inhibition of 5-HT-evoked currents), wild-type, from nonlinear mixed-effects model
[9] = IC50 derived from normalized data, wild-type, normalized data instead of mixed-effects model
[10] = wild-type, population parameter estimate
[11] = wild-type, population parameter estimate, listed as Eucalyptol

Compound	Measured dual inhibition with bilobalide compared with predictions [2]	Measured dual inhibition with diltiazem compared with predictions [2]	Agonist action when applied alone [3]	Reduction of inhibitory potency compared with wild-type receptors [3]	ΔpEC50 (ΔpIC50 for inhibitors, T6'S vs wild-type) [3]	IC50 [3]	IC50 [4, 8]	IC50 [4, 9]	nH (inhibitor Hill coefficient) [4, 10]	Competition with G-FL binding [5]	Effect on agonist (5-HT) pEC50 (interpretation of nG hypothesis test) ([4]; wild-type)	also measured
CC1CCC(C(C)C)C(O)C1 (centres unmarked) [menthol]	–	–	–	–	–	–	–	–	–	–	–	IC50 [1]: 163 µM
CC(C)=CCCC(C)=CC=O (mixture of isomers) [citral]	no different from the allotopic predictions	no different from the allotopic predictions	did not evoke currents; also recorded: no agonist action	approximately 2 fold	−0.36 ± 0.10	282 µM	120 µM	98 µM	1.3	unaffected; also recorded: no competition	–	Effect on agonist (5-HT) pEC50 (interpretation of nG hypothesis test) [4]: No evidence that citral changes agonist pEC50; nH (inhibitor Hill coefficient) ([4]; wild-type, population parameter estimate, listed as Citral): 1.34 ± 0.08
NCCc1c[nH]c2ccc(O)cc12 [5-HT, 5-hydroxytryptamine, reference compound]	–	–	–	–	–	–	–	–	–	–	–	Increase in 5-HT sensitivity in the T6'S mutant [3]: 2 fold; ΔpEC50 (T6'S vs wild-type) ([3]; agonist 5-HT): 0.35 ± 0.07; 5-HT nH (agonist Hill coefficient) ([4]; wild-type): 2.94 ± 0.13; Max (maximal 5-HT peak current) [4, 10]: 4.94 ± 0.64 µA
C=CC(C)(O)CCC=C(C)C (centres unmarked) [linalool]	greater than the allotopic prediction	greater than the allotopic prediction	did not evoke currents; also recorded: no agonist action	approximately 2 fold	−0.34 ± 0.04	309 µM	141 µM	83 µM	2.2	unaffected; also recorded: no competition	No/weak evidence that linalool changes agonist pEC50	nH (inhibitor Hill coefficient) ([4]; wild-type, population parameter estimate, listed as Linalool): 2.19 ± 0.26
CC12CCC(CC1)C(C)(C)O2 [eucalyptol]	–	greater than the allotopic prediction	did not evoke currents; also recorded: no agonist action	approximately 2 fold	−0.45 ± 0.22	724 µM	258 µM	174 µM	1.0	unaffected; also recorded: no competition	Strong evidence that eucalyptol changes agonist pEC50	Effect on 5-HT pEC50 at T6'S [3]: did not alter the 5-HT pEC50; Kb [4]: 813 µM; nS (Schild coefficient) [4, 10]: 1.7; pA2 (shift in agonist pEC50) [4, 10]: 3.09; nH (inhibitor Hill coefficient) [4, 11]: 1.04 ± 0.11; nS (Schild coefficient) [4, 11]: 1.70 ± 0.24
CN1C2CCCC1CC(NC(=O)c1nn(C)c3ccccc13)C2 (centres unmarked) [granisetron]	–	–	–	–	–	–	–	–	–	–	–	Effect on 5-HT-evoked contractions [6]: inhibited; Effect on 5-HT-induced contractions [7]: substantially inhibited

From PMC5378937 (The Journal of Pharmacology and Experimental Therapeutics, 2016)
